The source of these data is the RepoRT retention time repository (doi:10.1021/acs.analchem.2c02893).

Molecules are shown by their SMILES.

Conditions in all cases: stereoisomer not certain
Data set [1] in a line: RP, Thermo Scientific Acclaim RSLC 120 C18, 100 × 2.1 mm, 2.2 µm, 30 °C, 0.2 mL/min, estimated dead time 1.1 min; A: water + 0.1% formic acid, pH 2.6; B: methanol + 0.1% formic acid, pH 2.6; gradient (min/%B) 0/10 4/50 17/95 25/95 25.1/10 30/10.
Data set [2] can be described thus: RP, Waters ACQUITY UPLC BEH C18, 100 × 2.1 mm, 1.7 µm, 30 °C, 0.35 mL/min, estimated dead time 0.63 min; A: water + 0.01% formic acid + 5 mM ammonium formate, pH 3.71; B: acetonitrile + 0.01% formic acid, pH 3.71; gradient (min/%B) 0/10 3/10 22/100 30/100 30.1/10 40/10.
The nature of data set [3]: RP, Waters ACQUITY UPLC BEH C18, 100 × 2.1 mm, 1.7 µm, 35 °C, 0.35 mL/min, estimated dead time 0.63 min; A: water + 0.01% formic acid + 5 mM ammonium formate, pH 3.71; B: acetonitrile + 0.01% formic acid, pH 3.71; gradient (min/%B) 0/5 0.5/5 16/95 16.1/99 19/99 19.1/5 21/5.
Data set [4] can be described thus: RP, Thermo Scientific Acclaim RSLC 120 C18, 100 × 2.1 mm, 2.2 µm, 30 °C, 0.2 mL/min, estimated dead time 1.1 min; A: 90% water + 10% methanol + 0.01% formic acid + 5 mM ammonium formate, pH 3.61; B: methanol + 0.01% formic acid + 5 mM ammonium formate, pH 3.61; gradient (min/%B) 0/1 1/1 2/39 13/99.9 15/99.9 15.1/1 20.1/1.

In the case of `COC(=O)c1ccccc1C(=O)OC` [Phthalate-Dimethyl], the LC retention time is 7.52 min in data set [1], 9.38 min in data set [2], 7.03 min in data set [3] and 6.63 min in data set [4].

Take `CCC(C)OC(=O)N1CCCCC1CCO` (configuration not stated) [Picaridin (Icaridin)]: the LC retention time is 10.7 min in data set [1], 10.8 min in data set [2], 8.16 min in data set [3] and 8.83 min in data set [4].

`CC(C)NCC(O)COc1cccc2[nH]ccc12` (configuration not stated) [Pindolol]: the LC retention time in data set [1] was 3.69 min; in data set [2], 4.14 min; in data set [3], 3.7 min; in data set [4], 3.89 min.

Turning to `CC(C)NCC(O)COc1cccc2ccccc12` (configuration not stated) [Propranolol], the LC retention time in data set [1] was 6.27 min; in data set [2] it was 8.91 min; in data set [3], 6.49 min; in data set [4], 6.59 min.

For `COC1C=COC2(C)Oc3c(C)c(O)c4c(O)c(c5c(nc6cc(C)ccn65)c4c3C2=O)NC(=O)C(C)=CC=CC(C)C(O)C(C)C(O)C(C)C(OC(C)=O)C1C` (configuration not stated) [Rifaximin], the LC retention time in data set [1] was 12.5 min; in data set [2], 13 min; in data set [3], 9.87 min; in data set [4], 10.1 min.

As for `CC(N)C12CC3CC(CC(C3)C1)C2` (configuration not stated) [Rimantadin], the LC retention time in data set [1] is 6.34 min; in data set [2], 7.89 min; in data set [3], 5.86 min; in data set [4] it was 6.71 min.

Regarding `CCN(C)C(=O)Oc1cccc(C(C)N(C)C)c1` (configuration not stated) [Rivastigmine], the LC retention time in data set [1] is 4.86 min; in data set [2], 6.53 min; in data set [3], 4.78 min; in data set [4], 4.74 min.

Turning to `CC(=O)Nc1ccc(S(=O)(=O)Nc2nc(C)cc(C)n2)cc1` [Sulfamethazine-N4-Acetyl], the LC retention time in data set [1] was 5.06 min; in data set [2], 5.03 min; in data set [3], 4.03 min; in data set [4], 4.59 min.

For `N#CSCSc1nc2ccccc2s1` [TCMTB], the LC retention time in data set [1] is 11.4 min; in data set [2] it was 13.4 min; in data set [3], 10.1 min; in data set [4], 9.25 min.

Take `CCCCCc1cc(O)c2c(c1)OC(C)(C)C1CCC(C)=CC21` (configuration not stated) [THC]: the LC retention time was 18.7 min in data set [1], 19.6 min in data set [2], 15.1 min in data set [3] and 14 min in data set [4].

For `Cn1cnc2c1c(=O)[nH]c(=O)n2C` [Theobromine], the LC retention time in data set [1] is 3.37 min; in data set [2], 1.23 min; in data set [3] it was 1.65 min; in data set [4], 3.28 min.

`Cn1c(=O)c2[nH]cnc2n(C)c1=O` [Theophylline]: the LC retention time in data set [1] is 4.14 min; in data set [2] it was 1.66 min; in data set [3], 2.31 min; in data set [4], 3.93 min.

As for `CN(C)CC1CCCCC1(O)c1cccc(O)c1` (configuration not stated) [Tramadol-O-Desmethyl], the LC retention time in data set [1] is 3.86 min; in data set [2] it was 3.56 min; in data set [3], 3.48 min; in data set [4], 4.06 min.

`COc1cccc(C2(O)CCCCC2CN(C)C)c1` (configuration not stated) [Tramadol]: the LC retention time in data set [1] was 4.86 min; in data set [2], 6.56 min; in data set [3], 4.79 min; in data set [4], 4.88 min.

Consider `COc1cc(Cc2cnc(N)nc2N)cc(OC)c1OC` [Trimethoprim], for which the LC retention time was 3.86 min in data set [1], 4.48 min in data set [2], 3.78 min in data set [3] and 4.06 min in data set [4].

With `CCC1OC(=O)CC(O)C(C)C(OC2OC(C)C(OC3CC(C)(O)C(O)C(C)O3)C(N(C)C)C2O)C(CC=O)CC(C)C(=O)C=CC(C)=CC1COC1OC(C)C(O)C(OC)C1OC` (configuration not stated) [Tylosin], the LC retention time in data set [1] was 7.75 min; in data set [2], 10.1 min; in data set [3], 7.42 min; in data set [4], 7.88 min.

For `C=CC(N)CCC(=O)O` (configuration not stated) [Vigabatrin], the LC retention time in data set [1] is 1.34 min; in data set [2], 0.81 min; in data set [3], 0.83 min; in data set [4], 1.38 min.

With `N#CC1CCCN1C(=O)CNC12CC3CC(CC(O)(C3)C1)C2` (configuration not stated) [Vildagliptin], the LC retention time in data set [1] was 2.81 min; in data set [2] it was 1.89 min; in data set [3] it was 2.68 min; in data set [4], 3.26 min.
